# Laboratory results published in the Kinase Knowledgebase extract (Sharma et al. 2016).
# pIC50, pKi: −log10 of the molar value. Numbered stars: 1 amine (or outer) side, 2 acyl side, 3 side chain; on linkers, the order of the positions; unused ones are H or OH. Square brackets hold non-standard residues; d marks the D form. Residues, ends and D or L forms follow the SMILES beside them. Peptide text beside a SMILES is read from it. ξ: configuration not given here. *: point of attachment. X1 = CC(=O)C(=O)CCc1ccc(CC(N[*:1])C(=O)[*:2])cc1; X2 = O=CC(=O)CCc1ccc(CC(N[*:1])C(=O)[*:2])cc1; Ile(3ξ) = CCC(C)[C@H](N)C(=O)O
# Experiments:
# MAPK14 [1] = biological target: MAPK14 (UniProt Q16539); assay: Cascade Assay for Inhibitors of the MAP Kinase Pathway
# Chain of MAPK14 (Q16539 whole entry, looked up): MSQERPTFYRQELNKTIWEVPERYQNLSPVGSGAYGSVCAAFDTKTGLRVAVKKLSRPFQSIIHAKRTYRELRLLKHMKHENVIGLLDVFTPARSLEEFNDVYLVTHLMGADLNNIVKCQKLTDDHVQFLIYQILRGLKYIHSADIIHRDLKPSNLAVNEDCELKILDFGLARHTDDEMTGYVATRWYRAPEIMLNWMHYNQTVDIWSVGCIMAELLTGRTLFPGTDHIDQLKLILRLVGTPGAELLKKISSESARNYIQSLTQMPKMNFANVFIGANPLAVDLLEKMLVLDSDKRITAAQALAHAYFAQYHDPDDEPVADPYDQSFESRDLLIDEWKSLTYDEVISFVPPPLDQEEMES
# EGFR (murine) [2] = biological target: EGFR (murine) (UniProt P00533); details: nih3t3
# Chain of EGFR (murine) (P00533 whole entry, looked up): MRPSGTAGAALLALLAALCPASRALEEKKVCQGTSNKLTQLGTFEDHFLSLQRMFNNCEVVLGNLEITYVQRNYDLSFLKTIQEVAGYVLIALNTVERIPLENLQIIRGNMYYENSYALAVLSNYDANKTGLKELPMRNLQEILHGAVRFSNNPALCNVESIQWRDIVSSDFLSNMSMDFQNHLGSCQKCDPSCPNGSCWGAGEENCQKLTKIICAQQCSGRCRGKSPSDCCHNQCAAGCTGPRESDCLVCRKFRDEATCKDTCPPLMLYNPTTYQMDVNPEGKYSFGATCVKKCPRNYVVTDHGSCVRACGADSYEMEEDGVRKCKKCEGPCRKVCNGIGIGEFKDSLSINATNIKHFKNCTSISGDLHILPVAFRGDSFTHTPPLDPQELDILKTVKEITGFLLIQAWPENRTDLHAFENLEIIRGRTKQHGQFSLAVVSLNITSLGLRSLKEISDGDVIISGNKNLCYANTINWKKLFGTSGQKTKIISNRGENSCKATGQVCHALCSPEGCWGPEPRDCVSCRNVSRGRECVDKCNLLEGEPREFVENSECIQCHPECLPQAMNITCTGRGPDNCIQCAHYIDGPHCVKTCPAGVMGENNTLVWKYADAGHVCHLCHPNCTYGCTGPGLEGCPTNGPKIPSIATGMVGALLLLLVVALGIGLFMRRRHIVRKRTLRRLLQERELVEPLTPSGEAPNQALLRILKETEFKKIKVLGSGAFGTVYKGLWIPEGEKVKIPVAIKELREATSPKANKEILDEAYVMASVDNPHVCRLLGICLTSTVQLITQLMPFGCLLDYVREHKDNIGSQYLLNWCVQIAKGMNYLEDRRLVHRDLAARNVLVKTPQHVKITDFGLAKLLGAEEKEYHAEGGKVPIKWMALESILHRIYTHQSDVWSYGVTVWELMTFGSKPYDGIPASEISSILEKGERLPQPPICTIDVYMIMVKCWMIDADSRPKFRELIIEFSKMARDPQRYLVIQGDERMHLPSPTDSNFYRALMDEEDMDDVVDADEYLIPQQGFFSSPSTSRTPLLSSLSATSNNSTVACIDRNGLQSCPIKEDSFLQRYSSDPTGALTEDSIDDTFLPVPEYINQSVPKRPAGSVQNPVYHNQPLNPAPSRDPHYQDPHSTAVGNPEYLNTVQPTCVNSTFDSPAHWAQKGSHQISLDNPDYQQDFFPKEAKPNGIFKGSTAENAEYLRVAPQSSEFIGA
# MAPK14 [3] = biological target: MAPK14 (UniProt Q16539); assay: CSBP Inhibition
# EGFR [4] = biological target: EGFR (UniProt P00533)
# Chain of EGFR (P00533 whole entry, looked up): as above
# MAPK14 (Drosophila) = assay: p38 Kinase Inhibition; details: sf9
# EGFR (human) [5] = biological target: EGFR (human) (UniProt P00533); details: hn5
# Chain of EGFR (human) (P00533 whole entry, looked up): as above
# EGFR [6] = biological target: EGFR (UniProt P00533); remark: listed apart in the source
# EGFR [7] = biological target: EGFR (UniProt P00533); remark: listed apart in the source
# EGFR (human) [8] = biological target: EGFR (human) (UniProt P00533); details: a431
# MAPK14 [9] = biological target: MAPK14 (UniProt Q16539); assay: MAPK Kinase Inhibition
# CDK2 [10] = biological target: CDK2 (UniProt P24941); assay: Enzyme Assay
# CDK2 [11] = biological target: CDK2 (UniProt P24941); assay: Enzyme Assay; remark: listed apart in the source
# CDK2 (human) [12] = biological target: CDK2 (human) (UniProt P24941); assay: Enzyme Assay
# CDK2 (human) [13] = biological target: CDK2 (human) (UniProt P24941); assay: Enzyme Assay; remark: listed apart in the source
# EGFR (mouse) [14] = biological target: EGFR (mouse) (UniProt P00533); details: balb/mk
# EGFR (mouse) [15] = biological target: EGFR (mouse) (UniProt P00533); details: Swiss 3T3
# MAPK14 (human) [16] = biological target: MAPK14 (human) (UniProt Q16539); assay: Cell-Based Assay; details: a375
# Chain of MAPK14 (human) (Q16539 whole entry, looked up): as the sequence (Q16539 whole entry, looked up) above
# MAPK14 (human) [17] = biological target: MAPK14 (human) (UniProt Q16539); assay: Cellular Inhibition of MAPK14 Kinase in A549 Cells
# EGFR (murine) [18] = biological target: EGFR (murine) (UniProt P00533); details: f/l-herc
# EGFR [19] = biological target: EGFR (UniProt P00533); remark: listed apart in the source
# MAPK14 (human) [20] = biological target: MAPK14 (human) (UniProt Q16539); assay: TNFalpha Inhibition; details: pbmc
# EGFR (human) [21] = biological target: EGFR (human) (UniProt P00533)
# MAPK14 [22] = biological target: MAPK14 (UniProt Q16539); assay: p38-alpha Kinase Inhibition; details: concentration not given here
# ROCK2 = ROCK2 (UniProt O75116); assay: ROCK2 Kinase Inhibition; details: concentration not given here
# EGFR [23] = biological target: EGFR (UniProt P00533); remark: listed apart in the source
# EGFR (murine) [24] = biological target: EGFR (murine) (UniProt P00533); details: nih3t3/c7
# EGFR [25] = biological target: EGFR (UniProt P00533); details: balb/c 3t3
# MAPK14 (human) [26] = biological target: MAPK14 (human) (UniProt Q16539); assay: p38 --- TNF Inhibition (PBMC cells)
smiles,measurement,setting,value
COc1ccc(CN(Cc2ccc(OC)cc2)S(=O)(=O)c2cc(C(=O)NOCC3CC3)c(Nc3ccc(I)cc3Cl)c(F)c2F)cc1,pIC50,MAPK14 [1],< 5.52
COc1ccc(CN(Cc2ccc(OC)cc2)S(=O)(=O)c2cc(C(=O)O)c(Nc3ccc(I)cc3Cl)c(F)c2F)cc1,pIC50,MAPK14 [1],5.52
O=C1Nc2ccccc2/C1=C/c1ccccc1,pIC50,EGFR (murine) [2],< 4.00
C[S+]([O-])c1ccc(-c2ncn(C3CCN(CCC(=O)O)CC3)c2-c2ccnc([S+](C)[O-])n2)cc1 (stereo unspecified),pIC50,MAPK14 [3],< 4.30
CNC(=O)[C@H](CCCCN)NC(=O)[C@H](CCCCN)NC(=O)[C@@H]1CCCN1C(=O)[C@H](CSCCOCCOCCn1cc(C2=C(c3c[nH]c4ccccc34)C(=O)NC2=O)c2ccccc21)NC(C)=O (Ac-C(X1)PKK-NHMe),inhibition,EGFR [4],0
Cc1cc(F)ccc1-c1nc(N(C(N)=O)c2c(F)cccc2F)ccc1CO,pIC50,MAPK14 (Drosophila),7.57
Oc1ccc(-c2nc3c(O)cc(O)cc3s2)cc1,pIC50,EGFR (human) [5],3.52
CCC(C)[C@H](NC(=O)[C@H](CCC(=O)O)NC(=O)[C@H](CCC(=O)O)NC(=O)C(Cc1ccc(CCC(=O)C(C)=O)cc1)NC(C)=O)C(=O)N[C@@H](CCC(=O)O)C(=O)O (stereo partly specified) (Ac-[X1]EE[Ile(3ξ)]E-OH),pIC50,EGFR [6],≥ 3.59
COc1cc2ncnc(N(C)c3ccccc3)c2cc1OC,pIC50,EGFR [7],5.40
COc1cc2ncnc(Nc3ccccc3)c2cc1OC,pIC50,EGFR [7],7.30
CC(C)(C)c1cc(C=C(C#N)C(N)=S)cc(C(C)(C)C)c1,pIC50,EGFR (human) [8],4.70
COc1cc(OC)cc(-c2cc3cnc(N)nc3nc2NC(=O)NC(C)(C)C)c1,pIC50,MAPK14 [9],< 4.30
O=C1Nc2ccccc2/C1=C1/Nc2ccccc2C1=O,pIC50,CDK2 [10],5.12
same,pIC50,CDK2 [11],5.66
same,pIC50,CDK2 (human) [12],5.66
same,pIC50,CDK2 (human) [13],5.12
Cc1c(-c2ccccc2)[nH]c2ncnc(Nc3cccc(Cl)c3)c12,pIC50,EGFR (mouse) [14],< 4.30
Cc1nc2cc3nc(-c4ccccc4)cnc3cc2n1C,pIC50,EGFR (mouse) [15],< 4.52
Cc1cc2ncc(-c3cccs3)nc2cc1C,pIC50,EGFR (mouse) [15],< 4.52
CCC(C)[C@H](NC(=O)[C@H](CCC(=O)O)NC(=O)[C@H](CCC(=O)O)NC(=O)C(Cc1ccc(CCC(=O)C=O)cc1)NC(C)=O)C(=O)N[C@@H](CCC(=O)O)C(=O)O (stereo partly specified) (Ac-[X2]EE[Ile(3ξ)]E-OH),pIC50,EGFR [6],≥ 3.73
CCCS(=O)(=O)Nc1ccc(F)c(C(=O)c2c[nH]c3ncc(Cl)cc23)c1F,pIC50,MAPK14 (human) [16],< 5.00
COC(=O)N[C@@H](C)CNc1nccc(-c2cn(C(C)C)nc2-c2cc(Cl)cc(NS(C)(=O)=O)c2F)n1,pIC50,MAPK14 (human) [17],5.66
CN(C)CCOc1ccc(-c2nc(-c3ccc4c(c3)CC/C4=N\O)c(-c3ccncc3)[nH]2)cc1,pIC50,MAPK14 (human) [16],< 5.00
O=C1Nc2ccccc2/C1=C/c1ccncc1,pIC50,EGFR (murine) [2],< 4.00
CN(Cc1cccnc1)S(=O)(=O)c1cc(C(=O)O)c(Nc2ccc(I)cc2Cl)c(F)c1F,pIC50,MAPK14 [1],< 5.52
CN1C2CC[C@@]1(Nc1ncc3ncnc(Nc4ccc(F)c(Cl)c4)c3n1)CC(O)C2 (stereo partly specified),pIC50,EGFR (murine) [18],< 5.00
COc1ccc(/C=C/c2cnc3cc(OC)c(OC)cc3c2)cc1,pIC50,EGFR [19],< 4.70
Cc1ccc(NC(=O)c2ccnc(N3CCOCC3)c2)cc1-n1cnc2c(N(C)CCCN(C)C)cccc2c1=O,pIC50,MAPK14 (human) [20],5.15
Cc1ccccc1-c1nc(N(C(N)=O)c2c(Cl)cccc2Cl)ccc1CO,pIC50,MAPK14 (Drosophila),7.25
C#Cc1cccc(Nc2ncnc3cc(OC)c(OCCCCC(=O)O)cc23)c1,pIC50,EGFR (human) [21],≥ 7.00
CN(C)CCCn1cc(C2=C(c3c[nH]c4ccccc34)C(=O)NC2=O)c2ccccc21,activity,CDK2 [11]; concentration not given here,42%
same,activity,MAPK14 [22],99%
same,activity,ROCK2,89%
same,inhibition,EGFR [4],0
Cc1ccc(NC(=O)c2ccnc(N3CCOCC3)c2)cc1-n1cnc2ccc(N(C)CCCN(C)C)cc2c1=O,pIC50,MAPK14 (human) [20],5.70
Cc1cccc(Nc2ncnc3[nH]c4c(c23)CCCC4)c1,pIC50,EGFR (mouse) [14],< 4.30
COC(=O)NC[C@H](C)Nc1nccc(-c2cn(C(C)C)nc2-c2cc(Cl)cc(NS(C)(=O)=O)c2F)n1,pIC50,MAPK14 (human) [17],6.16
C/C(O)=C(\C#N)C(=O)Nc1cc(Br)ccc1Br,pIC50,EGFR [23],< 3.56
same,pKi,EGFR [23],3.78
O=C(N(c1ncc2ncnc(Nc3ccc(F)c(Cl)c3)c2n1)C1CCNCC1)C(F)(F)F,pIC50,EGFR (murine) [18],< 4.70
O=C1Nc2ccccc2C1=Cc1ccc(N2CCOCC2)cc1,pIC50,EGFR (murine) [24],4.70
Brc1cccc(Nc2ncnc3c2C2CCCCC2N3)c1 (stereo unspecified),pIC50,EGFR [25],6.30
Cc1cc(F)ccc1-c1nc(N(C(N)=O)c2c(Cl)cccc2Cl)ccc1CO,pIC50,MAPK14 (Drosophila),8.70
C#Cc1cccc(Nc2ncnc3cc(OC)c(OCCCCCCC(=O)O)cc23)c1,pIC50,EGFR (human) [21],≥ 7.00
O=c1ncn2nc(Sc3ccc(Cl)c(Cl)c3)ccc2c1-c1c(Cl)cccc1Cl,pIC50,MAPK14 (human) [26],5.66
O=C1Nc2ccc(I)cc2/C1=C/c1cc(Br)c(O)c(Br)c1,pIC50,MAPK14 (human) [16],< 5.00
